Laboratory results taken from patent US5506102A (priority 1993, dated 1996).

How the values were obtained:
Type in all cases: cell-based
human androgen receptor = molecular target: T1, human androgen receptor (Homo sapiens, UniProt P10275); assay: AR transcriptional activity on MMTV-LUC, CV-1 cells, AR alone; conditions: FIG. 10
T1 sequence (P10275 1-920): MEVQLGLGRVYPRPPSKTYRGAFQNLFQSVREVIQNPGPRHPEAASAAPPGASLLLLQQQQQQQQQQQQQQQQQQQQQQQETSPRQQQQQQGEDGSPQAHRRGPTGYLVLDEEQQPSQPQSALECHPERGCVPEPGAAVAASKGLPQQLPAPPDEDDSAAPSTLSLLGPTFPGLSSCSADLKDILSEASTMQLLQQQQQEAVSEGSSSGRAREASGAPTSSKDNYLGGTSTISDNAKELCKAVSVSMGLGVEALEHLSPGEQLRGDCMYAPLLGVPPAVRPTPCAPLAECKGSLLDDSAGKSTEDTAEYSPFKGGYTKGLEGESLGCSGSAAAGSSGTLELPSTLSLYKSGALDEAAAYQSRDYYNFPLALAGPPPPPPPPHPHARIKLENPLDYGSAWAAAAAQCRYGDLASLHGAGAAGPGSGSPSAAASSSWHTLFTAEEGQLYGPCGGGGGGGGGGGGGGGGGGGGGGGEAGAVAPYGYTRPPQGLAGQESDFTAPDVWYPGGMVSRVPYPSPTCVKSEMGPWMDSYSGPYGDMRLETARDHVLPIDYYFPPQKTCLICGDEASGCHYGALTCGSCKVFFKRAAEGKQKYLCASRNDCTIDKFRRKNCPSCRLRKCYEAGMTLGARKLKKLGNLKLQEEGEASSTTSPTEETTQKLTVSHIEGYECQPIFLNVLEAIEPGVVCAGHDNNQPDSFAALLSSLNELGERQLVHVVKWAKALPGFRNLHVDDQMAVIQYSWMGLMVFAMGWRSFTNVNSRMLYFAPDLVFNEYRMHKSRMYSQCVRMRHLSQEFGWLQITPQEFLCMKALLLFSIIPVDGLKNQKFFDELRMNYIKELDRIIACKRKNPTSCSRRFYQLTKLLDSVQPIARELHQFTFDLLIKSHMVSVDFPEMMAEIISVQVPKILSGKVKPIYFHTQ
Procedure: FIGS. 10A-10B are a series of graphs showing CV-1 cells that were transiently transfected with an expression vector for the human androgen receptor (pRShAR) alone, or in combination with phPR-A together with 5 µg/ml of the MMTV-LUC reporter and 5 µg/ml of pCH110 as an internal control. […] The relative luciferase activity is calculated by dividing the normalized luciferase value at a given point by that obtained in the absence of transfected receptor or ligand. […] The data are presented as percent (%) activation, where 100% represents the maximal induction achieved by human androgen receptor at 10^ -8 M DHT. The experimental data represents mean values +/- the average deviation from the mean of quadruplicate estimations;
Cells were seeded in 12-well, 96-well or 10 cm tissue culture plates. […] 20 μg of DNA/ml of transfection buffer were used in each transfection reaction. In this mix, the concentration of the luciferase plasmids and that of the internal control plasmid pCH110 (Pharmacia, Inc.), which contains the gene for the β-galactosidase enzyme, remained constant ([…] of each plasmid DNA), while the receptor plasmid concentration varied as indicated for each experiment. […]

ER = ER transcriptional activity on MMTV-ERE-LUC in HepG2 and HS578T cells; conditions: data not shown
[1] = tested on: glucocorticoid receptor (GR); assay: GR transcriptional activity on MMTV-LUC, CV-1 cells, GR co-expressed with PR-A; conditions: 1440 min
Procedure: Cells were seeded in 12-well, 96-well or 10 cm tissue culture plates. […] 20 μg of DNA/ml of transfection buffer were used in each transfection reaction. In this mix, the concentration of the luciferase plasmids and that of the internal control plasmid pCH110 (Pharmacia, Inc.), which contains the gene for the β-galactosidase enzyme, remained constant ([…] of each plasmid DNA), while the receptor plasmid concentration varied as indicated for each experiment. Different amounts of receptor parental plasmid, pSV2-neo (Dr. Bert O'Malley, Baylor College of Medicine, Houston, Tex.) was included to keep constant the total amount of the SV40 enhancer vectors. pGEM4 plasmid DNA (Promega Biotech, Madison, Wis.) was added to balance the total DNA concentration to 20 g/reaction. For the 96-well plate experiments, transfections were performed on a Biomek 1000 Automated Laboratory Workstation (Beckman Instruments, Fullerton, Calif.).
Cells were seeded 24 hours prior to transfection in the fiat-bottom tissue culture plates ([…]) in phenol red-free DMEM containing 10% FCS. […] Using calcium phosphate co-precipitation, DNA solution was added dropwise with vortexing into an equal volume of 2X HBS pH 6.9 (280 mM NaCl. 50 mM HEPES, 1.5 mM Na2 HPO4) and precipitates were allowed to form for 20 minutes. Cells were transfected ( […] of DNA mix/well) for 6 hours and then washed with phosphate-bufferedsaline (PBS) to remove the precipitate. Cells were incubated for an additional 24 hours in phenol red-free medium containing 10% charcoal-treated FCS, with or without hormones as indicated in the text. Cell extracts were prepared as described by Berger et al., Supra, and assayed for luciferase and β-galactosidase activities. All determinations were performed in triplicates in at least two independent experiments, and were normalized for transfection efficiency by using β-galactosidase as an internal control.

human vitamin D receptor = assay: VDR transcriptional activity on VDRE2 tk-LUC with PR-A, CV-1 cells; conditions: absence or presence of progesterone, FIG. 7
Source text: The data shown represent the mean value +/- the average deviation from the mean of triplicate determinations;
To analyze the specificity of PR-A action, we examined its ability to affect other receptor-dependent transcription systems. For this purpose, phPR-A was cotransfected with a vector expressing the vitamin D receptor (VDR) and assayed on a VDRE2 tk-LUC reporter (available from Dr. J. Wesley Pike, Ligand Pharmaceuticals, Inc.).

effect on DHT-induced AR activity (human androgen receptor) | Compound | anti-estrogenic activity (ER; HS578T cells) | anti-estrogenic activity (ER; HepG2 cells) | reduction in GR activity ([1]; GR and PR-A, 10^-9 M progesterone, 5×10^-8 M dexamethasone, FIG. 6, 0.001 µM) [%] | GR activity, of induced control levels ([1]; presence of progesterone and dexamethasone, PR-A co-expressed, FIG. 5A, 0.1 µM) [%] | effect of PR-A co-expression on hormone-dependent transactivation by VDR (human vitamin D receptor)
efficient inhibitor of DHT-activated AR | CC#C[C@]1(O)CC[C@H]2[C@@H]3CCC4=CC(=O)CCC4=C3[C@@H](c3ccc(C(C)=O)cc3)C[C@@]21C [ZK112993] | both anti-progestins functioned as anti-estrogens | neither anti-progestin exhibited any anti-estrogenic activity | – | – | –
– | CC(=O)[C@H]1CC[C@H]2[C@@H]3CCC4=CC(=O)CC[C@]4(C)[C@H]3CC[C@]12C [progesterone] | – | – | 50 | 2 | not substantially affected
